{
  "source": "patent US20120214818A1",
  "about": "“METHODS OF TREATING DIASTOLIC DYSFUNCTION AND RELATED CONDITIONS” (THE BOARD OF TRUSTEES OF THE UNIVERSITY OF ILLINOIS, priority 2009, published 2012)",
  "tested_on": "myofilaments of skinned left ventricular papillary fiber bundles",
  "experiment": "Ca2+-sensitivity of tension in skinned fiber bundles (first series, pCa-tension)",
  "type": "biochemical, mouse",
  "details": "for myofilament Ca2+ sensitivity: DOCA-salt fibers/myocytes treated with ranolazine",
  "protocol": "Ca^2+-sensitivity of tension in skinned fibers: Myofilament response to Ca^2+ was measured as essentially described in Reference 24. Left ventricular papillary muscles were dissected from mouse hearts and placed in 4° C. high relaxing solution (HR), which contained 10.00 mM EGTA, 41.89 mM K-Prop, 6.57 mM MgCl2, 100.00 mM 2-[bis(2-hydroxyethyl)amino]ethanesulfonic acid (BES), 6.22 mM Na-ATP, 10.00 mM CrP, 5.00 mM Na-azide, 2.5 μg/mL Pepstatin, 1 μg/mL Leupeptin, and 50 μM PMSF, pH 7.0. The muscles were then dissected further under the microscope into uniform thin bundles of about 3-5 mm in length and 150-250 μm in diameter. The fiber bundles were placed then into a skinning solution of HR that contained 1% triton for 1-2 h at 4° C. The skinned fiber bundles were mounted with cellulose acetate glue in a force measuring apparatus and sarcomere length was adjusted to 2.2 μm using a laser diffraction pattern and width and thickness were determined for calculation of cross-sectional area. The fiber bundles were incubated in ranolazine or vehicle for 15 minutes, and then were activated at 22° C. over a series of pCa (−log of the M Ca^2+ concentration) values between pCa 8.00 and pCa 4.5. Activating solutions were prepared by mixing HR with a pCa 4.50 solution of 10.00 mM EGTA, 9.99 mM CaCl2, 22.16 mM K-Prop (K-Prop stock had 1.00 M propionic acid and 1.00 M KOH), 6.20 mM MgCl2, 100.00 mM BES, 6.29 mM Na-ATP, 10.00 mM creatine phosphate (CrP), 5.00 mM Na-azide, 2.5 μg/mL pepstatin, 1 μg/mL leupeptin, and 50 μM PMSF, pH 7.0. HR and pCa 8.00-pCa 4.50 solutions had one unit of creatine phosphokinase per 200 μL of solution. Tension generated was computed from the force/cross-sectional area and data were analyzed in the Graphpad Prism software and fit into a sigmoidal modified Hill equation in order to generate tension-pCa curves, Hill coefficients, and pCa50 (pCa value at half-maximum tension).\nWe measured myofilament response to Ca^2+ under two experimental conditions as described in detail below. In a first series of experiments the skinned fiber bundles were mounted in a force measuring apparatus and sarcomere length (SL) was adjusted to 2.2 μm using a laser diffraction pattern and width and thickness were determined for calculation of cross-sectional area. Force was measured over a range of pCa values Skinned fiber bundles were treated with 10 μmol/L ranolazine for 15 min prior to evaluation. In a second series of experiments under different experimental conditions, we determined steady-state Mg-ATPase activity, while simultaneously measuring isometric tension in skinned fiber bundles as a function of pCa. In all experiments, skinned fibers were treated with ranolazine or DMSO vehicle for 15 min prior to beginning either tension or tension/ATPase rate measurements. Tension generated was computed from the force/cross-sectional area and data were analyzed in the GraphPad Prism software and fit with a sigmoidal modified Hill equation in order to generate tension-pCa curves, Hill coefficients, and pCa50 (pCa value at half-maximum tension). We also determined cross-bridge kinetics employing a quick release/restretch protocol. The rate constant for force redevelopment, Ktr, provides a measure of the rate of cross-bridge entry into the force generating state. In all experiments, only fiber bundles retaining more than 80% of their initial maximum tension were included in the analysis. […]",
  "note": "Values joined by “and” are separate entries in the source; they are usually repeats but may differ in a detail not shown here. Equal entries are not always repeated.",
  "data": [
    {"smiles": "COc1ccccc1OCC(O)CN1CCN(CC(=O)Nc2c(C)cccc2C)CC1", "note": "(centres unmarked) [ranolazine]", "values": [
      {"measurement": "Maximum Tension", "setting": "DOCA-salt fibers treated with ranolazine (FIG. 11)", "value": "36.03±1.50", "unit": "mN/mm^2"},
      {"measurement": "myofilament Ca2+ sensitivity", "value": "returned the DOCA-salt myofilament sensitivity to levels similar to sham fibers"},
      {"measurement": "myofilament Ca2+ sensitivity", "setting": "listed as Ranolazine", "value": "returned DOCA-salt myofilament sensitivity to levels similar to sham myocytes"},
      {"measurement": "Hill n", "setting": "fibers from DOCA mice treated with 10 μmol/L ranolazine 15 min, listed as ranalozine", "value": "3.71+/−1.0 and 3.71±1.0"},
      {"measurement": "pCa50 (pCa-tension relations normalized to maximum tension)", "setting": "fibers from DOCA mice treated with 10 μmol/L ranolazine 15 min, sarcomere length 2.2 μm, 22° C., listed as ranalozine", "value": "6.0+/−0.03 and 6.0±0.03"}
    ]}
  ]
}
